# Target: T1, CYP11A1 (Homo sapiens, UniProt P05108)
# T1 construct: human H295R adrenocortical carcinoma cell line was used as source of enzyme; endogenous in cells; host or cells: H295R human adrenocortical carcinoma cells
# T1 sequence (P05108 40-521): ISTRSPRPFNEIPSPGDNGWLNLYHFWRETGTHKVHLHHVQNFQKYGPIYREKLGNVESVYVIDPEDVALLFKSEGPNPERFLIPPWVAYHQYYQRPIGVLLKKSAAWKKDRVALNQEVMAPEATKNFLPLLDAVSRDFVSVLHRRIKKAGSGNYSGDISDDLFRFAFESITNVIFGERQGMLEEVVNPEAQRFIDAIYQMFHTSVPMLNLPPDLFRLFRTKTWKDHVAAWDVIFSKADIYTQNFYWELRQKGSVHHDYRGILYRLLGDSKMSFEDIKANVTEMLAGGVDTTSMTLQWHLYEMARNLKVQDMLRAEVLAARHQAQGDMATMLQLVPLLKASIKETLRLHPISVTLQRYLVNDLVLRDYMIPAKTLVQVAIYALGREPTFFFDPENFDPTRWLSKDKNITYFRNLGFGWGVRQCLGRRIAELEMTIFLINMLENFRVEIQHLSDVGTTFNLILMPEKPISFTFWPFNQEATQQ
# Assay: CYP11A1 inhibition, isocaproic acid release assay (IARA) in H295R cells
# Format: cell-based
# Settings: human H295R adrenocortical carcinoma cells treated three days, 3 nM [24,25-3H]-labelled cholesterol, 1% DMSO; read-out: IC50 on CYP11A1 inhibition (Group)
# Procedure: The ability of the test compounds to inhibit conversion of cholesterol to pregnenolone and isocaproic acid was measured by modification of isocaproic acid release assay (IARA) described by Ruangwises et al. (Biology of Reproduction 1991; 45(1):143-50) except that human H295R adrenocortical carcinoma cell line was used as source of enzyme and extraction was done with dextran-coated charcoal suspension (Isomaa, V. et al., Endocrinology 1982; 111(3):833-843). […] To determine the half maximal inhibitory concentration (IC50) of the test compounds on CYP11A1 inhibition, the cells were treated for three days with increasing concentrations of the test compounds in the presence of 3 nM [24,25-3H]-labelled cholesterol (American Radiolabelled Chemicals).
# The final DMSO concentration was 1%. Cell culture medium was extracted with dextran-coated charcoal suspension and the radiolabelled isocaproic acid was determined by mixing 100 μl of supernatant fraction in 200 μl of scintillation fluid (OptiPhase SuperMix, Perkin Elmer). Radioactivity was measured using a Microbeta scintillation counter (1450 MicroBeta Trilux, Wallac). All the test compounds were studied at 10 concentrations in duplicates.
row,SMILES,IC50
1,"COC(=O)c1ccc(COc2ccc(CN3Cc4ccccc4C3)cc2OC)cc1 [Compound 1, Methyl 4-((4-(isoindolin-2-ylmethyl)-2-methoxyphenoxy)methyl) benzoate]",351 to 1500 nM
2,"COC(=O)c1ccc(COc2ccc(CN3Cc4ccccc4C3)cc2)cc1 [Compound 2, Methyl 4-((4-(isoindolin-2-ylmethyl)phenoxy)methyl)benzoate]",351 to 1500 nM
3,"COC(=O)/C=C/c1ccc(COc2ccc(CN3Cc4ccccc4C3)cc2OC)cc1 [Compound 9, Methyl (E)-3-(4-((4-(isoindolin-2-ylmethyl)-2-methoxyphenoxy)methyl)phenyl)acrylate]",351 to 1500 nM
4,"COc1cc(CN2Cc3ccccc3C2)ccc1OCc1ccc(S(C)(=O)=O)cc1 [Compound 12, 2-(3-Methoxy-4-((4-(methylsulfonyl)benzyl)oxy)benzyl)isoindoline]",< 150 nM
5,"COCCNS(=O)(=O)c1ccc(COc2ccc(CN3Cc4ccccc4C3)cc2OC)cc1 [Compound 13, 4-((4-(Isoindolin-2-ylmethyl)-2-methoxyphenoxy)methyl)-N-(2-methoxyethyl)-benzenesulfonamide]",< 150 nM
6,"CS(=O)(=O)c1ccc(COc2ccc(CN3Cc4ccccc4C3)cc2C#N)cc1 [Compound 16, 5-(Isoindolin-2-ylmethyl)-2-((4-(methylsulfonyl)benzyl)oxy)benzonitrile]",151 to 350 nM
7,"CN(C)C(=O)c1cc(CN2Cc3ccccc3C2)ccc1OCc1ccc(S(C)(=O)=O)cc1 [Compound 17, 5-(Isoindolin-2-ylmethyl)-N,N-dimethyl-2-((4-(methylsulfonyl)benzyl)oxy)-benzamide]",351 to 1500 nM
8,"COCc1cc(CN2Cc3ccccc3C2)ccc1OCc1ccc(S(C)(=O)=O)cc1 [Compound 18, 2-(3-(Methoxymethyl)-4-((4-(methylsulfonyl)benzyl)oxy)benzyl)isoindoline]",151 to 350 nM
9,"CS(=O)(=O)N1CCC(COc2ccc(CN3Cc4ccccc4C3)cc2C#N)CC1 [Compound 19, 5-(Isoindolin-2-ylmethyl)-2-((1-(methylsulfonyl)piperidin-4-yl)methoxy)-benzonitrile]",< 150 nM
10,"COCCS(=O)(=O)c1ccc(COc2ccc(CN3Cc4ccccc4C3)cc2COC)cc1 [Compound 20, 2-(4-((4-((2-Methoxyethyl)sulfonyl)benzyl)oxy)-3-(methoxymethyl)benzyl)-isoindoline]",< 150 nM
11,"COc1c(OCc2ccc(S(C)(=O)=O)cc2)ccc(CN2Cc3ccccc3C2)c1F [Compound 21, 2-(2-Fluoro-3-methoxy-4-((4-(methylsulfonyl)benzyl)oxy)benzyl)isoindoline]",< 150 nM
12,"COCc1cc(CN2Cc3ccccc3C2)ccc1OCC1CCN(S(C)(=O)=O)CC1 [Compound 22, 2-(3-(Methoxymethyl)-4-((1-(methylsulfonyl)piperidin-4-yl)methoxy)benzyl)-isoindoline]",< 150 nM
13,"COc1c(OCC2CCN(C(=O)NC(C)C)CC2)ccc(CN2Cc3ccccc3C2)c1[N+](=O)[O-] [Compound 23, 4-((4-(Isoindolin-2-ylmethyl)-2-methoxy-3-nitrophenoxy)methyl)-N-isopropyl-piperidine-1-carboxamide]",351 to 1500 nM
14,"CN(C)C(=O)c1ccc(COc2ccc(CN3Cc4ccccc4C3)c(F)c2)cc1 [Compound 24, 4-((3-Fluoro-4-(isoindolin-2-ylmethyl)phenoxy)methyl)-N,N-dimethylbenzamide]",351 to 1500 nM
15,"CN(C)C(=O)c1ccc(COc2cc(F)c(CN3Cc4ccccc4C3)c(F)c2)cc1 [Compound 25, 4-((3,5-Difluoro-4-(isoindolin-2-ylmethyl)phenoxy)methyl)-N,N-dimethyl-benzamide]",151 to 350 nM
16,"CN(C)C(=O)c1ccc(COc2cc(F)c(CN3Cc4ccccc4C3)cc2F)cc1 [Compound 26, 4-((2,5-Difluoro-4-(isoindolin-2-ylmethyl)phenoxy)methyl)-N,N-dimethyl-benzamide]",< 150 nM
17,"CN(C)C(=O)c1ccc(COc2ccc(CN3Cc4ccccc4C3)c(F)c2F)cc1 [Compound 27, 4-((2,3-Difluoro-4-(isoindolin-2-ylmethyl)phenoxy)methyl)-N,N-dimethyl-benzamide]",351 to 1500 nM
18,"COc1cc(CN2Cc3ccccc3C2)cc(F)c1OCc1ccc(C(=O)N(C)C)cc1 [Compound 28, 4-((2-Fluoro-4-(isoindolin-2-ylmethyl)-6-methoxyphenoxy)methyl)-N,N-di-methylbenzamide]",351 to 1500 nM
19,"CN(C)C(=O)c1ccc(COc2ccc(CN3Cc4ccccc4C3=O)cc2OC(F)(F)F)cc1 [Compound 30, N,N-Dimethyl-4-((4-((1-oxoisoindolin-2-yl)methyl)-2-(trifluoromethoxy)-phenoxy)methyl)benzamide]",351 to 1500 nM

# The remaining lines, values ahead:
row,IC50,SMILES
1,< 150 nM,"COc1cc(CN2Cc3ccccc3C2)ccc1OCc1ccc(C(=O)N(C)C)cc1 [Compound 3, 4-((4-(Isoindolin-2-ylmethyl)-2-methoxyphenoxy)methyl)-N,N-dimethyl-benzamide]"
2,151 to 350 nM,"CN(C)C(=O)c1ccc(COc2ccc(CN3Cc4ccccc4C3)cc2Cl)cc1 [Compound 4, 4-((2-Chloro-4-(isoindolin-2-ylmethyl)phenoxy)methyl)-N,N-dimethyl-benzamide]"
3,151 to 350 nM,"CN(C)C(=O)c1ccc(COc2ccc(CN3Cc4ccccc4C3)cc2O)cc1 [Compound 5, 4-((2-Hydroxy-4-(isoindolin-2-ylmethyl)phenoxy)methyl)-N,N-dimethyl-benzamide]"
4,< 150 nM,"CN(C)C(=O)c1ccc(COc2ccc(CN3Cc4ccccc4C3)cc2C#N)cc1 [Compound 6, 4-((2-Cyano-4-(isoindolin-2-ylmethyl)phenoxy)methyl)-N,N-dimethylbenzamide]"
5,151 to 350 nM,"COC(=O)c1cc(CN2Cc3ccccc3C2)ccc1OCc1ccc(C(=O)N(C)C)cc1 [Compound 7, Methyl 2-((4-(dimethylcarbamoyl)benzyl)oxy)-5-(isoindolin-2-ylmethyl)-benzoate]"
6,151 to 350 nM,"CCOc1cc(CN2Cc3ccccc3C2)ccc1OCc1ccc(C(=O)N(C)C)cc1 [Compound 8, 4-((2-Ethoxy-4-(isoindolin-2-ylmethyl)phenoxy)methyl)-N,N-dimethyl-benzamide]"
7,151 to 350 nM,"COCc1cc(CN2Cc3ccccc3C2)ccc1OCc1ccc(C(=O)N(C)C)cc1 [Compound 10, 4-((4-(Isoindolin-2-ylmethyl)-2-(methoxymethyl)phenoxy)methyl)-N,N-di-methylbenzamide]"
8,151 to 350 nM,"CN(C)C(=O)c1ccc(COc2ccc(CN3Cc4ccccc4C3)cc2OCC(F)(F)F)cc1 [Compound 11, 4-((4-(Isoindolin-2-ylmethyl)-2-(2,2,2-trifluoroethoxy)phenoxy)methyl)-N,N-dimethylbenzamide]"
9,< 150 nM,"CN(C)C(=O)c1ccc(COc2ccc(CN3Cc4ccccc4C3)cc2OCC(N)=O)cc1 [Compound 14, 4-((2-(2-Amino-2-oxoethoxy)-4-(isoindolin-2-ylmethyl)phenoxy)methyl)-N,N-dimethylbenzamide]"
10,151 to 350 nM,"C=CCc1cc(CN2Cc3ccccc3C2)ccc1OCc1ccc(C(=O)N(C)C)cc1 [Compound 15, 4-((2-Allyl-4-(isoindolin-2-ylmethyl)phenoxy)methyl)-N,N-dimethylbenzamide]"
11,351 to 1500 nM,"CN(C)C(=O)c1ccc(COc2ccc(CN3Cc4ccccc4C3)cc2OC(F)(F)F)cc1 [Compound 29, 4-((4-(Isoindolin-2-ylmethyl)-2-(trifluoromethoxy)phenoxy)methyl)-N,N-dimethylbenzamide]"
